Values of other authors in patent publication US20230345944A1, “Purified and Enhanced Hydrogen Peroxide Disinfecting Solution for the Rapid Inactivation of COVID-19 and Other Pathogens” (Alira Health Boston LLC, priority 2021, published 2023).

Test system: bacteria
Conditions: hydrogen peroxide on its own

## OO [hydrogen peroxide]
  minimal inhibitory concentration (MIC): about 1 mM
